System: WM3248 melanoma cells, 486 antibodies
Assay: Reverse phase protein arrays (RPPA);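 on Cyclin.B1.R.V RPPA level: ratio of treated to vehicle (0 µM) normalized linear protein signal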;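 on Cyclin.E1.R.V RPPA level: ratio of treated to vehicle (0 µM) normalized linear protein signal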;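 on DDB.1.R.V RPPA level: ratio of treated to vehicle (0 µM) normalized linear protein signal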;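 on RPPA ACC1.R.C: ratio of treated to vehicle (0 µM) normalized linear protein signal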;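 on RPPA ASNS.R.V: ratio of treated to vehicle (0 µM) normalized linear protein signal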;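 on RPPA AceCS1.R.V: ratio of treated to vehicle (0 µM) normalized linear protein signal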;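 on RPPA Akt1.R.V: ratio of treated to vehicle (0 µM) normalized linear protein signal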;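 on RPPA Atg5.R.C: ratio of treated to vehicle (0 µM) normalized linear protein signal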;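 on RPPA Bim.R.V: ratio of treated to vehicle (0 µM) normalized linear protein signal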
Assay type: cell-based, Human
Details: 5 uM, Average
Source text: Pellets were snap frozen in liquid nitrogen and shipped to MD Anderson Cancer Center core RPPA facility for RPPA analysis (Table S5). Three biological replicates for each sample were generated.
Nomenclatures on the RPPA heatmaps: name_of_antibody.species_of_antibody.status_of_antibody. V - antibody validated; C - validation of antibody in progress; Q - antibody nonspecific; E – under evaluation; antibodies raised in M - mouse, G - goat, R - rabbit, or T - rat.

CN(C)c1cccc(Nc2cc(-c3ccccc3)nc(C3CCNCC3)n2)c1 [ARN22089, N1,N1-dimethyl-N3-(6-phenyl-2-(piperidin-4-yl)pyrimidin-4-yl)benzene-1,3-diamine]
Cox2.R.C RPPA level: 1.057
Cox.IV.R.V RPPA level: 1.028
Creb.R.C RPPA level: 1.080
CtIP.R.V RPPA level: 0.961
Cyclin.B1.R.V RPPA level: 1.030
Cyclin.D1.R.C RPPA level: 1.001
Cyclin.D3.M.V RPPA level: 1.046
Cyclin.E1.R.V RPPA level: 0.995
Cyclophilin.F.M.V RPPA level: 0.908
D.a.Tubulin.R.V RPPA level: 1.114
DAPK1_pS308.M.C RPPA level: 0.822
DDB.1.R.V RPPA level: 1.124
DDR1.R.V RPPA level: 0.952
DDR1_pY513.R.C RPPA level: 1.021
DJ1.R.V RPPA level: 1.059
DM.K9.Histone.H3.M.V RPPA level: 0.994
DNA.Ligase.IV.R.C RPPA level: 1.104
DNA_POLG.R.V RPPA level: 0.927
RPPA A.Raf.R.V: 1.059
RPPA A.Raf_pS299.R.C: 0.992
RPPA ACC1.R.C: 1.065
RPPA ACC_pS79.R.V: 0.961
RPPA ACLY_pS455.R.V: 0.986
RPPA ACSL1.R.V: 0.842
RPPA ACVRL1.R.C: 0.970
RPPA ADAR1.M.V: 1.014
RPPA ALKBH5.R.V: 0.919
RPPA AMPK.a2_pS345.R.V: 1.081
RPPA AMPKa.R.C: 1.048
RPPA AMPKa_pT172.R.C: 1.331
RPPA AR.R.V: 1.032
RPPA ARID1A.R.C: 1.009
RPPA ASNS.R.V: 1.062
RPPA ATM.R.V: 1.153
RPPA ATM_pS1981.R.V: 0.964
RPPA ATP5A.M.C: 0.801
RPPA ATP5H.R.V: 0.961
RPPA ATR.R.V: 0.966
RPPA ATRX.R.C: 1.030
RPPA ATR_pS428.R.C: 1.061
RPPA AceCS1.R.V: 0.899
RPPA Akt1.R.V: 0.928
RPPA Akt1_pS473.R.V: 1.048
RPPA Akt2.R.V: 1.002
RPPA Akt2_pS474.R.C: 1.185
RPPA Akt.R.V: 1.002
RPPA Akt_pS473.R.V: 1.132
RPPA Akt_pT308.R.V: 0.940
RPPA Ambra1_pS52.R.C: 0.946
RPPA Annexin.I.M.V: 1.026
RPPA Annexin.VII.M.V: 0.993
RPPA Atg3.R.V: 1.035
RPPA Atg5.R.C: 0.970
RPPA Atg7.R.V: 0.970
RPPA Aurora.A.R.C: 0.940
RPPA Aurora.ABC_pT288_pT232_pT198.R.C: 0.876
RPPA Aurora.B.R.V: 0.890
RPPA Axl.R.V: 1.076
RPPA B7.H3.R.C: 1.022
RPPA B7.H4.R.C: 1.046
RPPA B.Raf.R.C: 1.049
RPPA BAP1.M.V: 0.921
RPPA BCL2A1.R.V: 0.906
RPPA BMK1.Erk5_pT218_Y220.R.V: 0.997
RPPA Bad_pS112.R.V: 1.055
RPPA Bax.R.V: 0.956
RPPA Bcl2.R.C: 0.897
RPPA Bcl.xL.R.V: 0.932
RPPA Beclin.R.C: 0.921
RPPA BiP.GRP78.M.C: 0.957
RPPA Bid.R.C: 1.077
RPPA Bim.R.V: 0.984
RPPA DNMT1.R.V: 0.995
RPPA DRP1.R.V: 1.010
RPPA DUSP4.R.V: 1.114
RPPA DYRK1B.R.C: 1.013
RPPA Dvl3.R.V: 1.014
RPPA E2F1.R.V: 0.961
RPPA E.Cadherin.R.V: 0.957
RPPA EGFR.R.V: 0.980
RPPA EGFR_pY1068.R.C: 0.993
RPPA EGFR_pY1173.R.V: 1.046

From article PMC9127750, “Structure-based design of CDC42 effector interaction inhibitors for the treatment of cancer” (Cell reports, 2022)
